Experimental findings from PubChem BioAssay AID588719 (Southern Research Specialized Biocontainment Screening …, 2011) are described below.

The test system of this experiment is Vero 76 cells viability, cytotoxicity counter-screen. Nature of the experiment: Vero 76 cell cytotoxicity, dose response, cytotoxicity control for VEEV inhibitor project (AID 588719).

As for `COc1cc(/C=C/C(=O)/C=C(O)/C=C/c2ccc(O)c(OC)c2)ccc1O`, the 50% cytotoxic concentration (CC50) was 19.9 µM.
